Data published in PMC2972219, “Ionotropic Glutamate Receptor AMPA 1 Is Associated with Ovulation Rate” (PLoS ONE, 2010).

Legend:
LH release = tested on: LH release; set-up: method as in PMID 9331548; conditions: infusion into the third cerebral ventricle, ovariectomized estrogen-primed adult female rats; cited from earlier work
[1] = target: GRIA1^Asn (brain membrane fraction of N/N cows); test: [3H]AMPA ligand binding assay, membrane fractions from brain of N/N cows; set-up: species or system bovine; conditions: saturation binding of [3H]AMPA 1-200 nM, n = 3
Experimental: (§1) Membrane fractions were extracted from bovine brain as described previously, and 25 µg of protein were resolved by SDS-PAGE and transferred to polyvinylidene difluoride membranes. The blots were incubated with rabbit polyclonal antibody to GRIA1 (1∶1000, AB1504, Millipore, Tokyo, Japan) or actin (1∶200, A2066, Sigma-Aldrich, St. Louis, MO).
(§2) Protein (500 µg/ml) was used for a ligand binding assay with [^3H] AMPA (392.2 GBq/mmol, 1–200 nM) as described previously. Non-specific binding obtained by incubating 1 mM L- glutamate in the binding assay was subtracted from total binding to yield specific [^3H] AMPA- binding.

[2] = target: GRIA1^Ser (brain membrane fraction of S/S cows); test: [3H]AMPA ligand binding assay, membrane fractions from brain of S/S cows; set-up: species or system bovine; conditions: saturation binding of [3H]AMPA 1-200 nM, n = 3
Experimental: as §1, §2

[3] = target: GRIA1 (brain membrane fraction of S/N cows); test: [3H]AMPA ligand binding assay, membrane fractions from brain of S/N cows; set-up: species or system bovine; conditions: saturation binding of [3H]AMPA 1-200 nM, n = 3
Experimental: as §1, §2

GRIA1^Ser with GRIA2 = test: Whole-cell current responses in Xenopus oocytes coexpressing GRIA1^Ser with GRIA2; type: cell-based, bovine; conditions: Xenopus oocytes expressing GRIA1^Ser coexpressed with GRIA2, n = 8; read-out: EC50 of current response
Experimental: (§3) Bovine GRIA1 mRNAs were synthesized using mMESSAGE mMACHINE® SP6 Kit (Applied Biosystems) and injected into Xenopus oocytes as described previously. Whole-cell current responses to 1, 3, 10, 30, 100, and 300 µM glutamate were recorded as described previously.

GRIA1^Asn = target: T1, GRIA1^Asn (Bos taurus, UniProt G0T3G6, S306N); test: Whole-cell current responses in Xenopus oocytes injected with GRIA1^Asn mRNA; type: cell-based, bovine; conditions: Xenopus oocytes expressing GRIA1^Asn alone, glutamate 1-300 µM, n = 9; read-out: EC50 of current response
T1 construct: expressed in transfected cells; host or cells: Xenopus oocytes (mRNA injection)
T1 sequence (G0T3G6 19-906 S306N): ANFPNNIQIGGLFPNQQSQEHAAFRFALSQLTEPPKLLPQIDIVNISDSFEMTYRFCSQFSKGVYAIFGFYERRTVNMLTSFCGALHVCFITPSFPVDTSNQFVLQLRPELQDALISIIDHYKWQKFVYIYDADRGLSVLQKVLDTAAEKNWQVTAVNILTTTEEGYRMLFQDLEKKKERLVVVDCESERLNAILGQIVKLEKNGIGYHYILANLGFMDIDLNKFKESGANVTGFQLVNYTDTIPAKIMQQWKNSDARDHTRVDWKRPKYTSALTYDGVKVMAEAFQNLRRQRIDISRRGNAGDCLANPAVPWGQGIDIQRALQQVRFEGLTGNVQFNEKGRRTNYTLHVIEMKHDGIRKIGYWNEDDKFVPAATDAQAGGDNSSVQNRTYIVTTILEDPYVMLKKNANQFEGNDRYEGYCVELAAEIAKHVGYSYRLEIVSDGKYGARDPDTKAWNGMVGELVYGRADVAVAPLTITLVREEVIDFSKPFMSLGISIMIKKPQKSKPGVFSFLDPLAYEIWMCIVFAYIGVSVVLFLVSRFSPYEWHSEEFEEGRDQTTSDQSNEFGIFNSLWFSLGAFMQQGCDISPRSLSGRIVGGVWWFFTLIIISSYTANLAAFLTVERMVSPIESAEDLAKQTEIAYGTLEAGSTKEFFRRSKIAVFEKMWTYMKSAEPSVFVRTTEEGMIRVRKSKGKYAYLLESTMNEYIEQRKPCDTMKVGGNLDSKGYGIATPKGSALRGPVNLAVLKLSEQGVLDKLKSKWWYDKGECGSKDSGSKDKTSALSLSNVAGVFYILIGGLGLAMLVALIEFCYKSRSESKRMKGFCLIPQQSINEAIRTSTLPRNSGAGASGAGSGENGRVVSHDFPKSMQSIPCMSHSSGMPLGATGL
Experimental: as §3

[4] = tested on: GT1-7 cells expressing GRIA1^Ser; test: GnRH release from GT1-7 cells expressing GRIA1 (enzyme immunoassay); type: cell-based, murine; conditions: 100 µM glutamate for 30 min, GT1-7 cells expressing GRIA1^Ser compared with GRIA1^Asn
Experimental: We amplified bovine GRIA1 that had been cloned into pTracer-nucGFP with primers GRIA1InFusionF and R and then switched into pCAGGS (N-R) using the In-Fusion™ Advantage PCR Cloning Kit (Takara Bio Inc., Shiga, Japan) to produce HA-tagged protein under the control of a ubiquitous strong promoter that was based on the β-actin promoter.
GT1-7 cells were cultured in six-well dishes coated with poly-L-ornithine (BD Biocoat [PLO/LM] 354658, Becton Dickinson and Company, Franklin Lakes, NJ) with conditioned-Dulbecco's modified Eagles medium (C-MEM), which was comprised of a 1∶1 mixture of conditioned medium from mouse embryonic astrocytes in primary culture and Dulbecco's modified Eagles medium with high glucose (Invitrogen) supplemented with 10% fetal calf serum, penicillin (100 U/ml), and streptomycin (100 µg/ml). When cells reached 90 % confluence, C-MEM was replaced with Opti-MEM (Invitrogen) and transfected with Lipofectamine 2000 (Invitrogen) for 24 h.
The next day, confluent GT1-7 cells were treated as described previously. The concentration of GnRH in the media was assayed using an LH-releasing hormone enzyme immunoassay kit (S-1217, Peninsula Laboratories, LLC, San Carlos, CA) according to the manufacturer's instructions.

GRIA1^Ser = target: T2, GRIA1^Ser (Bos taurus, UniProt G0T3G6); test: Whole-cell current responses in Xenopus oocytes injected with GRIA1^Ser mRNA; type: cell-based, bovine; conditions: Xenopus oocytes expressing GRIA1^Ser alone, glutamate 1-300 µM, n = 10; read-out: EC50 of current response
T2 construct: expressed in transfected cells; host or cells: Xenopus oocytes (mRNA injection)
T2 sequence (G0T3G6 19-906): as the sequence (G0T3G6 19-906 S306N) above, with N288S counted along it
Experimental: as §3

GRIA1^Asn with GRIA2 = test: Whole-cell current responses in Xenopus oocytes coexpressing GRIA1^Asn with GRIA2; type: cell-based, bovine; conditions: Xenopus oocytes expressing GRIA1^Asn coexpressed with GRIA2, n = 8; read-out: EC50 of current response
Experimental: as §3

## Cc1o[nH]c(=O)c1CC(N)C(=O)O (stereo not drawn) [AMPA]
LH release
  LH release: induces LH release
[1]
  Kd: 0.0596 µM
[2]
  Kd: 0.0277 µM
[3]
  Kd: 0.0436 µM

## N[C@@H](CCC(=O)O)C(=O)O [glutamate]
GRIA1^Ser with GRIA2
  EC50: 4.9 µM
GRIA1^Asn
  EC50: 10.7 µM
[4]
  GnRH release: induced the release of more GnRH than that from cells expressing GRIA1^Asn
GRIA1^Ser
  EC50: 4.5 µM
GRIA1^Asn with GRIA2
  EC50: 10.4 µM
